# Test results: ChEMBL document CHEMBL1158467, “In vitro intrinsic clearance-based optimization of N3-phenylpyrazinones as corticotropin-releasing factor-1 (CRF1) receptor antagonists” (J Med Chem, 2009)
# Calls of active or inactive are those of the source. The rule behind the calls is not given here.
# How the values were obtained:
# [1] = Intrinsic clearance in human liver microsomes at 1 uM; assay type: ADME, Microsome
# [2] = target: T1, Corticotropin-releasing factor receptor 1 (Rattus norvegicus, UniProt P35353); test: Displacement of [125I]ovine-CRF from CRF1 receptor in rat frontal cortex by rapid filtration technique; assay type: tissue-based
# T1 sequence (P35353 whole entry): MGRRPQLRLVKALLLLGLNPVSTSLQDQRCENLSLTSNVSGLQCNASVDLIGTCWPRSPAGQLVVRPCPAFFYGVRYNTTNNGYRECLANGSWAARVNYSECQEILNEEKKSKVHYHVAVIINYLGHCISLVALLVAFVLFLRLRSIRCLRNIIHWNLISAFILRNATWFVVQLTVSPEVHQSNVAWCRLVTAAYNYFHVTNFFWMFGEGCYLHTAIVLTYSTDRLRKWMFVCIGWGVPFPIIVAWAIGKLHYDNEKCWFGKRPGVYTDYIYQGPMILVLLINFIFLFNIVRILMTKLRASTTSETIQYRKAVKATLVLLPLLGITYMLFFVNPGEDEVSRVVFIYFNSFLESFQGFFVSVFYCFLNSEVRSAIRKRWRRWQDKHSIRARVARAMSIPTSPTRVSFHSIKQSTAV
# [3] = Cmax in Sprague-Dawley rat at 10 mg/kg, po dosed as aqueous suspension of 1% polysorbate 80 in 0.5% methylcellulose within 0.25 to 24 hrs; assay type: ADME, organism-based; parameters: dose 10 mg/kg, route oral; settings: in vivo
# [4] = Half life in Sprague-Dawley rat 2 mg/kg, iv within 0.17 to 24 hrs; assay type: ADME, organism-based; parameters: dose 2 mg/kg, route intravenous; settings: in vivo
# [5] = Cmax in Sprague-Dawley rat at 10 mg/kg, po dosed as aqueous solution of oleoyl macrogolglyceride/DMAC/polysorbate 80, 85:10:5 within 0.25 to 24 hrs; assay type: ADME, organism-based; parameters: dose 10 mg/kg, route oral; settings: Sprague-Dawley, in vivo
# [6] = Volume of distribution at steady state in Sprague-Dawley rat 2 mg/kg, iv within 0.17 to 24 hrs; assay type: ADME, organism-based; parameters: dose 2 mg/kg, route intravenous; settings: in vivo, read-out: Vdss
# [7] = Aqueous solubility at pH 6.5; assay type: physicochemical
# [8] = Oral bioavailability in Sprague-Dawley rat at 10 mg/kg dosed as aqueous suspension of 1% polysorbate 80 in 0.5% methylcellulose within 0.25 to 24 hrs; assay type: ADME, organism-based; settings: in vivo
# [9] = AUC in Sprague-Dawley rat at 10 mg/kg, po dosed as aqueous suspension of 1% polysorbate 80 in 0.5% methylcellulose within 0.25 to 24 hrs; assay type: ADME, organism-based; parameters: time 0.25-24 hr, dose 10 mg/kg, route oral; settings: in vivo
# [10] = Clearance in Sprague-Dawley rat 2 mg/kg, iv within 0.17 to 24 hrs; assay type: ADME, organism-based; parameters: dose 2 mg/kg, route intravenous; settings: in vivo
# [11] = Aqueous solubility at pH 1; assay type: physicochemical
# [12] = AUC in Sprague-Dawley rat at 10 mg/kg, po dosed as aqueous solution of oleoyl macrogolglyceride/DMAC/polysorbate 80, 85:10:5 within 0.25 to 24 hrs; assay type: ADME, organism-based; parameters: time 0.25-24 hr, dose 10 mg/kg, route oral; settings: plasma
# [13] = Oral bioavailability in Sprague-Dawley rat at 10 mg/kg dosed as aqueous solution of oleoyl macrogolglyceride/DMAC/polysorbate 80, 85:10:5 within 0.25 to 24 hrs; assay type: ADME, organism-based; settings: Sprague-Dawley, in vivo
# [14] = system: Rattus norvegicus; test: Total plasma concentration in Sprague-Dawley rat at 10 mg/kg, po; assay type: ADME, organism-based; parameters: dose 10 mg/kg, route oral; settings: in vivo
# [15] = system: Rattus norvegicus; test: Ex vivo receptor occupancy of CRF1 receptor in Sprague-Dawley rat brain at 10 mg/kg, po after 20 mins by autoradiography relative to [125I-tyrosine]sauvagine; assay type: functional
# [16] = system: Rattus norvegicus; test: Plasma free concentration in Sprague-Dawley rat at 10 mg/kg, po; assay type: ADME, organism-based; parameters: dose 10 mg/kg, route oral; settings: in vivo
# [17] = Fraction unbound in Sprague-Dawley rat plasma at 10 mg/kg, po after 3 hrs by equilibrium dialysis; assay type: ADME, organism-based; parameters: dose 10 mg/kg, route oral
# [18] = system: Rattus norvegicus; test: Anxiolytic activity in Sprague-Dawley rat at 10 mg/kg, po assessed as decrease in exit latency after 60 mins by defensive withdrawal test relative to control; assay type: functional; parameters: scale not given: the % may be the effect or the level left
# [19] = system: Rattus norvegicus; test: Anxiolytic activity in Sprague-Dawley rat at 1 mg/kg, po assessed as decrease in exit latency after 60 mins by defensive withdrawal test relative to control; assay type: functional
# [20] = system: Rattus norvegicus; test: Ex vivo receptor occupancy of CRF1 receptor in Sprague-Dawley rat brain at 3 mg/kg, po after 20 mins by autoradiography relative to [125I-tyrosine]sauvagine; assay type: functional
# [21] = system: Rattus norvegicus; test: Anxiolytic activity in Sprague-Dawley rat at 3 mg/kg, po assessed as decrease in exit latency after 60 mins by defensive withdrawal test relative to control; assay type: functional
# [22] = system: Rattus norvegicus; test: Ex vivo receptor occupancy of CRF1 receptor in Sprague-Dawley rat brain at 1 mg/kg, po after 20 mins by autoradiography relative to [125I-tyrosine]sauvagine; assay type: functional
# [23] = target: Corticotropin releasing hormone receptor 2 (Sus scrofa, UniProt B8Q4Z9); test: Displacement of [125I]sauvagine from CRF2 receptor in pig choroid plexus by rapid filtration technique; assay type: tissue-based
# Chain of Corticotropin releasing hormone receptor 2 (B8Q4Z9 whole entry): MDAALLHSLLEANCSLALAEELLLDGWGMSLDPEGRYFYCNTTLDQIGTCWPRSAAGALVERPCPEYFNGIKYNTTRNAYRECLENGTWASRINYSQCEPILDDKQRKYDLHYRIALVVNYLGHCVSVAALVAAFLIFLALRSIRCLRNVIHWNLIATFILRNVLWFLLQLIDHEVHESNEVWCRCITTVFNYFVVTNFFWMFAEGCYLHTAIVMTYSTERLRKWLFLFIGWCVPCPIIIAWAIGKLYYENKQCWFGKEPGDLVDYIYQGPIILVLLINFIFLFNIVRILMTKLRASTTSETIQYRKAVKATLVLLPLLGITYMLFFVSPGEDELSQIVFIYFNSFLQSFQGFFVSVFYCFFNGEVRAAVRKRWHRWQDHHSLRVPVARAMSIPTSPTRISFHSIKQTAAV
SMILES,CLint scaled at 1 µM [1],IC50 [2],further results
COc1cc(C)c(Nc2nc(Cl)cn([C@H](C)C3CC3)c2=O)cc1C,61 mL/min/kg,,
CC[C@H](C1CC1)n1cc(Cl)nc(Nc2c(Cl)cc(OC)cc2Cl)c1=O,400 mL/min/kg,0.44 nM,
C[C@H](C1CC1)n1cc(Cl)nc(Nc2c(Cl)cc(Cl)cc2C#N)c1=O,,18 nM,
Cc1cc(C)c(Nc2nc(Cl)cn([C@H](C)C3CC3)c2=O)c(Cl)c1,140 mL/min/kg,0.98 nM,
CC[C@H](C1CC1)n1cc(Cl)nc(Nc2c(Cl)cc(C(F)(F)F)cc2Cl)c1=O,89 mL/min/kg,1.3 nM,
CCOc1cc(C)c(Nc2nc(Cl)cn([C@H](C)C3CC3)c2=O)cc1C,32 mL/min/kg,1.2 nM,
C[C@H](C1CC1)n1cc(Cl)nc(Nc2c(Cl)cc(OC(F)(F)F)cc2Cl)c1=O,30 mL/min/kg,6.5 nM,
Cc1cn([C@H](C)C2CC2)c(=O)c(Nc2c(C)cc(Cl)cc2C)n1,,3.1 nM,Cmax [3]: 95 nM; half-life [4]: 12 h; Cmax [5]: 270 nM; Vd [6]: 12 L/kg; solubility [7]: 13 µg/mL; bioavailability [8]: 6%; AUC [9]: 0.95 µM·h; clearance [10]: 30 mL/min/kg; solubility [11]: 1360 µg/mL; AUC [12]: 1.7 µM·h; bioavailability [13]: 10%
CC[C@H](C1CC1)n1cc(Cl)nc(Nc2c(Cl)cc(C#N)cc2Cl)c1=O,160 mL/min/kg,,
Cc1cc(C#N)cc(Cl)c1Nc1nc(Cl)cn([C@H](C)C2CC2)c1=O,38 mL/min/kg,2.9 nM,concentration [14]: 250 nM; Activity [15]: 34%; Cp(f) [16]: 11 nM; fraction unbound at 3 h [17]: 0.044
C[C@H](C1CC1)n1cc(Cl)nc(Nc2c(Cl)cc(OC(F)F)cc2Cl)c1=O,22 mL/min/kg,0.46 nM,
Cc1cc(C)c(Nc2nc(Cl)cn([C@H](C)C3CC3)c2=O)c(C)c1,180 mL/min/kg,,
COC[C@@H](C1CC1)n1cc(Cl)nc(Nc2c(Cl)cc(C(F)(F)F)cc2Cl)c1=O,64 mL/min/kg,1.6 nM,
C[C@H](C1CC1)n1cc(Cl)nc(Nc2c(Cl)cc(C#N)cc2Cl)c1=O,58 mL/min/kg,,concentration [14]: 120 nM; Activity [15]: 11%; Cp(f) [16]: 2.3 nM; fraction unbound at 3 h [17]: 0.019
CC[C@H](C1CC1)n1cc(Cl)nc(Nc2c(C)cc(C)cc2C)c1=O,340 mL/min/kg,,
COC[C@@H](C)n1cc(Cl)nc(Nc2c(Cl)cc(C(F)(F)F)cc2Cl)c1=O,32 mL/min/kg,11 nM,
C[C@H](C1CC1)n1cc(C#N)nc(Nc2c(Cl)cc(OC(F)F)cc2Cl)c1=O,,4.3 nM,Cmax [3]: 160 nM; Activity [15]: 55%; half-life [4]: 12 h; Cmax [5]: 1600 nM; Vd [6]: 13 L/kg; solubility [7]: < 1 µg/mL; bioavailability [8]: 10%; Activity [18]: 61%; AUC [9]: 1.9 µM·h; clearance [10]: 21 mL/min/kg; solubility [11]: < 1 µg/mL; AUC [12]: 15 µM·h; bioavailability [13]: 80%; fraction unbound at 3 h [17]: 0.03
C[C@H](C1CC1)n1cc(Cl)nc(Nc2c(Cl)cc(C(F)(F)F)cc2Cl)c1=O,10 mL/min/kg,4.1 nM,Cmax [3]: 490 nM; concentration [14]: 2000 nM; Activity [15]: 81%; Activity [19]: inactive; Activity [20]: inactive; half-life [4]: 17 h; Cp(f) [16]: 6.7 nM; Activity [21]: inactive; Vd [6]: 24 L/kg; bioavailability [8]: 37%; Activity [22]: inactive; Activity [18]: 68%; AUC [9]: 7.35 µM·h; clearance [10]: 21 mL/min/kg; fraction unbound at 3 h [17]: 0.0033
CC[C@H](C1CC1)n1cc(Cl)nc(Nc2c(Cl)cc(OC(F)(F)F)cc2Cl)c1=O,77 mL/min/kg,1.8 nM,
C[C@H](C1CC1)n1cc(Cl)nc(Nc2c(Cl)cc(Cl)cc2Cl)c1=O,,0.91 nM,

SMILES,CLint scaled at 1 µM [1],IC50 [2],further results
COc1cc(Cl)c(Nc2nc(Cl)cn([C@H](C)C3CC3)c2=O)c(Cl)c1,130 mL/min/kg,,
CC[C@H](COC)n1cc(Cl)nc(Nc2c(Cl)cc(C#N)cc2Cl)c1=O,210 mL/min/kg,1.7 nM,
CC[C@H](C1CC1)n1cc(Cl)nc(Nc2c(C)cc(Cl)cc2Cl)c1=O,210 mL/min/kg,,
COC[C@@H](C)n1cc(Cl)nc(Nc2c(Cl)cc(C#N)cc2Cl)c1=O,35 mL/min/kg,18 nM,
CC[C@H](COC)n1cc(Cl)nc(Nc2c(Cl)cc(C(F)(F)F)cc2Cl)c1=O,150 mL/min/kg,2.3 nM,
C[C@H](C1CC1)n1cc(C#N)nc(Nc2c(Cl)cc(C(F)(F)F)cc2Cl)c1=O,13 mL/min/kg,7.5 nM,concentration [14]: 1400 nM; Activity [15]: 68%; Cp(f) [16]: 16 nM; fraction unbound at 3 h [17]: 0.011
COCC(COC)Nc1nc(C)nc2c(-c3ccc(Cl)cc3Cl)c(C)nn12,,1.2 nM,Activity [18]: 61%
Cc1cc(Cl)c(Nc2nc(Cl)cn([C@H](C)C3CC3)c2=O)cc1C#N,160 mL/min/kg,19 nM,
COc1cc(C)c(Nc2nc(Cl)cn([C@H](C)C3CC3)c2=O)cc1OC,100 mL/min/kg,15 nM,
CCCC(CCC)n1cc(Cl)nc(Nc2c(Cl)cc(C(F)(F)F)cc2Cl)c1=O,110 mL/min/kg,3.7 nM,
C[C@H](C1CC1)n1cc(Cl)nc(Nc2cc3c(cc2Cl)OCC3)c1=O,,120 nM,
CC[C@H](C)[C@H](NC(=O)[C@@H](NC(=O)[C@H](CC(=O)O)NC(=O)[C@H](CC(C)C)NC(=O)[C@H](CC(C)C)NC(=O)[C@H](CC(C)C)NC(=O)[C@H](CCCNC(=N)N)NC(=O)[C@H](CC(N)=O)NC(=O)[C@H](CC(N)=O)NC(=O)[C@H](C)NC(=O)[C@H](C)NC(=O)[C@H](CCC(N)=O)NC(=O)[C@H](CCC(N)=O)NC(=O)[C@H](CCCCN)NC(=O)[C@H](CCC(=O)O)NC(=O)[C@H](CCCCN)NC(=O)[C@H](CCC(=O)O)NC(=O)[C@H](CCC(N)=O)NC(=O)[C@H](CCCCN)NC(=O)[C@H](CCC(=O)O)NC(=O)[C@@H](NC(=O)[C@H](CCC(=O)O)NC(=O)[C@@H](NC(=O)[C@H](CCSC)NC(=O)[C@H](CCCCN)NC(=O)[C@H](CCCNC(=N)N)NC(=O)[C@H](CC(C)C)NC(=O)[C@H](CC(C)C)NC(=O)[C@H](CCC(=O)O)NC(=O)[C@H](CC(C)C)NC(=O)[C@H](CO)NC(=O)[C@H](CC(C)C)NC(=O)[C@H](CC(=O)O)NC(=O)[C@@H](NC(=O)[C@H](CO)NC(=O)[C@@H](NC(=O)[C@@H]1CCCN1C(=O)[C@@H]1CCCN1C(=O)CNC(=O)[C@@H]1CCC(=O)N1)[C@@H](C)CC)[C@@H](C)CC)[C@@H](C)CC)[C@@H](C)CC)[C@@H](C)O)C(N)=O [SAUVAGINE],,,IC50 [23]: 0.58 nM
C[C@H](C1CC1)n1cc(Cl)nc(Nc2c(Cl)cc(S(C)(=O)=O)cc2Cl)c1=O,,63 nM,
Cc1cc(Cl)cc(Cl)c1Nc1nc(Cl)cn([C@H](C)C2CC2)c1=O,44 mL/min/kg,1.2 nM,
C[C@@H](C1CC1)n1cc(Cl)nc(Nc2c(Cl)cc(C(F)(F)F)cc2Cl)c1=O,,7.9 nM,
COc1cc(Cl)c(C)cc1Nc1nc(Cl)cn([C@H](C)C2CC2)c1=O,,36 nM,
COc1cc(Cl)c(Nc2nc(Cl)cn([C@H](C)C3CC3)c2=O)cc1F,180 mL/min/kg,8.2 nM,
COCC(COC)n1cc(Cl)nc(Nc2c(Cl)cc(C(F)(F)F)cc2Cl)c1=O,53 mL/min/kg,8.5 nM,
Cc1cc(C)c(Nc2nc(Cl)cn([C@H](C)C3CC3)c2=O)cc1C,,4.8 nM,
